The results in this text go back to US20080194470A1, “Nim811 In Cerebral Ischemia and Brain and Spinal Cord Injury” (Novartis AG, priority 2004, published 2008).

The test has as its system isolated rodent brain-derived mitochondria. The conditions noted are these: under energized and de-energized conditions; comparable to the effects of cyclosporine A. An excerpt: Spinal cord injury model (in vivo) • Adult Lewis rats are injured microsurgically by transecting the dorsal half of the spinal cord bilaterally at the level of the eighth thoracic vertebra. Laminectomy, anesthesia and surgery are described in Schnell and Schwab, Eur J Neurosci, Vol. 5, pp. 1156-1171 (1993). […] Tamura et al., J Cereb Blood Flow Metabol, Vol. 1, pp. 53-60 (1981); and Sauter and Rudin, Stroke, Vol. 17, pp. 1228-1234 (1986)]. • 3. Inhibition of mitochondrial permeability transition in isolated rodent brain-derived mitochondria and prevention of cell death in an in vitro model of ischemic brain damage, e.g. as described in Rytter et al., JCBF, Vol. 23, pp. 23-33.

Regarding [γ-hydroxy-MeLeu]^4-Ciclosporin, the “inhibition of calcium-induced mitochondrial swelling” value was “inhibitors of calcium-induced mitochondrial swelling”.
Consider [Melle]^4-Ciclosporin, for which the “inhibition of calcium-induced mitochondrial swelling” value is given as “inhibitors of calcium-induced mitochondrial swelling”.
